Assay results published in US20130230485A1, “Methods for Treating Patients Undergoing Multi-Cycle Chemotherapy” (priority 2012, published 2013).
Entries after “also recorded” stand apart in the source; their conditions may differ.

Experiments:
[1] = system: patients with recurrent ovarian cancer receiving gemcitabine and a platin; assay: Phase 2 study: pharmacodynamic effects on peripheral platelet counts and ANC; format: in vivo, human
From the text: (§1) Following Institutional Review Board protocol approval and patient signature of an informed consent form, eligible patients were randomized in a 1:1:1 ratio to receive 100 mcg/kg/day TXA127, 300 mcg/kg/day TXA127, or placebo with gemcitabine plus carboplatin or cisplatin. The randomization was stratified by the patients' intended chemotherapy regimen (see below). The Investigator, patient, and Sponsor were blinded to the treatment assignment. Treatment consisted of up to six consecutive 21-day cycles of one of the following chemotherapy regimens:
(§2) Regimen A • Intravenous cisplatin therapy at a dose between 30 and 50 mg/m^2 (inclusive) given on Day 1 of the cycle • Intravenous gemcitabine at a dose of 800 mg/m^2 given on Day 1 after cisplatin and on Day 8 of the cycle • Regimen B • Intravenous gemcitabine at a dose of 1,000 mg/m^2 given on Days 1 and 8 of the cycle • Intravenous carboplatin AUC range of 4-6 given on Day 1 of the cycle after gemcitabine
(§3) Study drug (TXA127 or placebo) was administered subcutaneously during each treatment cycle once daily for 5 consecutive days following the first chemotherapy agent (Days 2-6) and for 7 consecutive days following the second chemotherapy agent (Days 9-15). At Baseline, End-of-Treatment and weekly throughout each treatment cycle, blood specimens were collected for determination of hematologic variables. Hematologic responses were evaluated based on the National Cancer Institute Common Terminology Criteria for Adverse Events (NCl-CTCAE), Version 3.0.
The following parameters were evaluated to assess the pharmacodynamic effects of TXA127 on peripheral platelet counts: nadir platelet count, maximal platelet count, and maximum percentage increase and decrease from baseline.

[2] = system: patients with recurrent ovarian cancer receiving gemcitabine and a platin; assay: Phase 2 study: adverse events / safety analysis; format: in vivo, human
From the text: as §1, §2, §3
Thirty-two patients who underwent randomization were included in the efficacy analysis according to their randomly assigned treatment group (intention-to-treat principle). Two additional patients were excluded from this analysis: one patient treated with 100 mcg/kg TXA127 was excluded due to consent withdrawal and one patient treated with 300 mcg/kg TXA127 was excluded due to disease progression. Both patients initiated a single cycle of chemotherapy and had no study drug-related adverse events. All patients were included in the safety analysis.

With `CC[C@H](C)[C@H](NC(=O)[C@H](Cc1ccc(O)cc1)NC(=O)[C@@H](NC(=O)[C@H](CCCNC(=N)N)NC(=O)[C@@H](N)CC(=O)O)C(C)C)C(=O)N[C@@H](Cc1c[nH]cn1)C(=O)N1CCC[C@H]1C(=O)O` [TXA127, Asp-Arg-Val-Tyr-Ile-His-Pro] the “ANC relative to placebo (in words)” value ([1]; 100 mcg/kg TXA127) was “decrease in the nadir ANC relative to placebo; also recorded: significant reduction in ANC”, the “maximal percentage decrease in ANC post-baseline” value ([1]; 100 mcg/kg TXA127) was 85% and the “maximal percentage decrease in ANC post-baseline” value ([1]; 300 mcg/kg TXA127) was 78%. For the same compound, the “Frequency of Adverse Events: Abdominal Distension” value ([2]; 100 mcg group (11 patients)) was 1, the “Frequency of Adverse Events: Abdominal Pain” value ([2]; 100 mcg group (11 patients)) was 4 and the “Frequency of Adverse Events: Anaemia” value ([2]; 100 mcg group (11 patients)) was 4. For the same compound, the “Frequency of Adverse Events: Arthralgia” value ([2]; 100 mcg group (11 patients)) was 1, the “Frequency of Adverse Events: Back Pain” value ([2]; 100 mcg group (11 patients)) was 5 and the “Frequency of Adverse Events: Constipation” value ([2]; 100 mcg group (11 patients)) was 7. For the same compound, the “Frequency of Adverse Events: Cough” value ([2]; 100 mcg group (11 patients)) was 0, the “Frequency of Adverse Events: Decreased Appetite” value ([2]; 100 mcg group (11 patients)) was 3 and the “Frequency of Adverse Events: Dizziness” value ([2]; 100 mcg group (11 patients)) was 3. The “Frequency of Adverse Events: Dyspepsia” value ([2]; 100 mcg group (11 patients)) was 4, the “Frequency of Adverse Events: Dyspnea” value ([2]; 100 mcg group (11 patients)) was 0 and the “Frequency of Adverse Events: Dysuria” value ([2]; 100 mcg group (11 patients)) was 2. For the same compound, the “Frequency of Adverse Events: Epistaxis” value ([2]; 100 mcg group (11 patients)) was 0, the “Frequency of Adverse Events: Fatigue” value ([2]; 100 mcg group (11 patients)) was 6 and the “Frequency of Adverse Events: Headache” value ([2]; 100 mcg group (11 patients)) was 5. The “Frequency of Adverse Events: Hypersensitivity” value ([2]; 100 mcg group (11 patients)) was 1, the “Frequency of Adverse Events: Leukopenia” value ([2]; 100 mcg group (11 patients)) was 3 and the “Frequency of Adverse Events: Nausea” value ([2]; 100 mcg group (11 patients)) was 7. For the same compound, the “Frequency of Adverse Events: Neutropenia” value ([2]; 100 mcg group (11 patients)) was 5, the “Frequency of Adverse Events: Oropharyngeal Pain” value ([2]; 100 mcg group (11 patients)) was 1 and the “Frequency of Adverse Events: Pyrexia” value ([2]; 100 mcg group (11 patients)) was 3. For the same compound, the “Frequency of Adverse Events: Rash” value ([2]; 100 mcg group (11 patients)) was 1, the “Frequency of Adverse Events: Thrombocytopenia” value ([2]; 100 mcg group (11 patients)) was 5 and the “Frequency of Adverse Events: Vomiting” value ([2]; 100 mcg group (11 patients)) was 4. For the same compound, the thrombocytosis following treatment ([2]; 100 mcg/kg TXA127) was “One patient experienced thrombocytosis”, the “patients who discontinued study drug due to a treatment-emergent adverse event” value ([2]; 100 mcg/kg group) was “Two” and the “Frequency of Adverse Events: Abdominal Distension” value ([2]; 300 mcg group (13 patients)) was 4. The “Frequency of Adverse Events: Abdominal Pain” value ([2]; 300 mcg group (13 patients)) was 1, the “Frequency of Adverse Events: Anaemia” value ([2]; 300 mcg group (13 patients)) was 5 and the “Frequency of Adverse Events: Arthralgia” value ([2]; 300 mcg group (13 patients)) was 1. The “Frequency of Adverse Events: Back Pain” value ([2]; 300 mcg group (13 patients)) was 5, the “Frequency of Adverse Events: Constipation” value ([2]; 300 mcg group (13 patients)) was 5 and the “Frequency of Adverse Events: Cough” value ([2]; 300 mcg group (13 patients)) was 2. The “Frequency of Adverse Events: Decreased Appetite” value ([2]; 300 mcg group (13 patients)) was 0, the “Frequency of Adverse Events: Dizziness” value ([2]; 300 mcg group (13 patients)) was 3 and the “Frequency of Adverse Events: Dyspepsia” value ([2]; 300 mcg group (13 patients)) was 2. For the same compound, the “Frequency of Adverse Events: Dyspnea” value ([2]; 300 mcg group (13 patients)) was 5, the “Frequency of Adverse Events: Dysuria” value ([2]; 300 mcg group (13 patients)) was 1 and the “Frequency of Adverse Events: Epistaxis” value ([2]; 300 mcg group (13 patients)) was 1. The “Frequency of Adverse Events: Fatigue” value ([2]; 300 mcg group (13 patients)) was 7, the “Frequency of Adverse Events: Headache” value ([2]; 300 mcg group (13 patients)) was 5 and the “Frequency of Adverse Events: Hypersensitivity” value ([2]; 300 mcg group (13 patients)) was 2. The “Frequency of Adverse Events: Leukopenia” value ([2]; 300 mcg group (13 patients)) was 2, the “Frequency of Adverse Events: Nausea” value ([2]; 300 mcg group (13 patients)) was 9 and the “Frequency of Adverse Events: Neutropenia” value ([2]; 300 mcg group (13 patients)) was 8. The “Frequency of Adverse Events: Oropharyngeal Pain” value ([2]; 300 mcg group (13 patients)) was 1, the “Frequency of Adverse Events: Pyrexia” value ([2]; 300 mcg group (13 patients)) was 2 and the “Frequency of Adverse Events: Rash” value ([2]; 300 mcg group (13 patients)) was 5. For the same compound, the “Frequency of Adverse Events: Thrombocytopenia” value ([2]; 300 mcg group (13 patients)) was 2, the “Frequency of Adverse Events: Vomiting” value ([2]; 300 mcg group (13 patients)) was 5 and the “patients who discontinued study drug due to a treatment-emergent adverse event” value ([2]; 300 mcg/kg group) was “Two”. For the same compound, the “safety with these chemotherapy regimens” value ([2]; up to 6 cycles of gemcitabine + platin) was “The safety of TXA127 was demonstrated”.
